Earlier results, collected in publication PMC12308805, “Ultrahigh-Throughput Virtual Screening Strategies against PPI Targets: A Case Study of STAT Inhibitors” (Journal of Chemical Information and Modeling, 2025).
Square brackets hold non-standard residues; d marks the D form. Peptide text beside a SMILES is read from it. * marks the point of attachment. pY = N[C@@H](Cc1ccc(OP(=O)(O)O)cc1)C(=O)O; d(aThr) = C[C@@H](O)[C@@H](N)C(=O)O; Isobutyryl = CC(C)C(=O)*

System: STAT3
Conditions: cited from earlier work

Q: For `CC(C)C[C@H](NC(=O)/C=C/c1ccc(OP(=O)(O)O)cc1)C(=O)N1CCC[C@H]1C(=O)N[C@H](C)COC(N)=O` [CHEMBL584376], which “Type (known STAT3 active)” value is on record?
A: Active

Q: For `CC(C)C[C@H](NC(=O)/C=C/c1ccc(OP(=O)(O)O)cc1)C(=O)N1CCC[C@H]1C(=O)N[C@H](C(=O)NCc1ccccc1)[C@@H](C)OC(N)=O` [CHEMBL376795], which “Type (known STAT3 active)” value is on record?
A: Active

Same assay, conditions: sheet 6QHD_actives_decoys, retrospective screening set for STAT3 SH2 domain (PDB 6QHD); decoys are presumed inactives, not tested; ref DUD-E; cited from earlier work

Q: With `CC(=O)N[C@H]1[C@@H](OC(=O)CCn2c(=O)oc3ccccc32)O[C@@H](COC(C)=O)[C@@H](OC(C)=O)[C@H]1OC(C)=O` [Decoy931] as the molecule, how does the Type read?
A: Inactive (Decoy)

Q: With `CC(=O)O[C@H]1[C@@H](O)[C@@H](O[C@@H](/C=N\c2cnc([N+](=O)[O-])s2)[C@@H](CO)O[C@H](O)/C=N/c2cnc([N+](=O)[O-])s2)O[C@@H](CO)[C@H]1O` [Decoy909] as the molecule, how does the Type read?
A: Inactive (Decoy)

Q: With `O=C(O)C[C@H](NS(=O)(=O)c1cc(S(=O)(=O)N[C@H](CC(=O)O)c2ccccc2)c2cccc3c2c1NC3=O)c1ccccc1` [Decoy892] as the molecule, how does the Type read?
A: Inactive (Decoy)

Q: With `CO[C@@H]1[C@@H](OC(N)=O)[C@H](O)[C@@H](Oc2ccc3c(O)c(NC(=O)c4ccc(O)c(CC=C(C)C)c4)c(=O)oc3c2C)OC1(C)C` [Decoy883] as the molecule, how does the Type read?
A: Inactive (Decoy)

Q: With `CCCn1c(N)c(N(CCOC)C(=O)Cc2coc3cc(C)c(C(C)C)cc23)c(=O)[nH]c1=O` [Decoy953] as the molecule, how does the Type read?
A: Inactive (Decoy)

Q: Which Type does the source give for `CNC(=O)[C@H](CC(C)C)NC(=O)[C@H](Cc1c[nH]cn1)NC(=O)[C@@H](C)NC(=O)[C@@H](NC(=O)[C@H](C)NC(=O)[C@H](Cc1c[nH]c2ccccc12)NC(=O)[C@H](Cc1cnc[nH]1)NC(=O)C(C)C)C(C)C` [Decoy805] (Isobutyryl-HWAV[dA]HL-NHMe) here?
A: Inactive (Decoy)

Q: Which Type does the source give for `COc1cc([C@H]2OC[C@H]3[C@@H]2CO[C@H]3c2ccc(O[C@@H]3O[C@H](CO[C@@H]4O[C@@H](C)[C@H](O)[C@@H](O)[C@H]4O)[C@@H](O)[C@H](O)[C@H]3O)c(OC)c2)ccc1O` [Decoy911] here?
A: Inactive (Decoy)

Q: Which Type does the source give for `CCOC(=O)[C@@](NC(=O)c1cccc(Cl)c1)(Nc1ccc(S(=O)(=O)Nc2cc(C)nc(C)n2)cc1)C(F)(F)F` [Decoy740] here?
A: Inactive (Decoy)

Q: Which Type does the source give for `CCNc1nc(NCC)n2c(SCC(=O)NC3=C(C(=O)OCC)[C@H]4CCC[C@@H]4S3)nnc2n1` [Decoy857] here?
A: Inactive (Decoy)

Q: Which Type does the source give for `O=C(CNS(=O)(=O)c1ccc(NC(=S)Nc2ccc([N+](=O)[O-])cc2)cc1)c1ccccc1` [Decoy913] here?
A: Inactive (Decoy)

Q: With `COc1cc(-c2ccc(/N=N/c3cc(S(=O)(=O)O)c4ccccc4c3O)c(OC)c2)ccc1/N=N\c1c(S(=O)(=O)O)cc2cc(C(=O)O)c(O)cc2c1O` [Decoy859] as the molecule, how does the Type read?
A: Inactive (Decoy)

Same assay, conditions: sheet 6QHD_actives_decoys; known STAT3 actives of the retrospective screening set; ref ChEMBL / literature; cited from earlier work

Q: With `CC(=O)N[C@@H](Cc1ccc(OP(=O)(O)O)cc1)C(=O)N[C@@H](CC(C)C)C(=O)N1CCC[C@@H]1C(=O)N[C@H](CCC(N)=O)C(=O)N[C@@H](C(=O)N[C@H](C)C(=O)O)[C@@H](C)O` [CHEMBL157727] (Ac-[pY]L[dP][dQ][d(aThr)][dA]-OH) as the molecule, how does the “Type (known STAT3 active)” value read?
A: Active

Q: With `CC(C)C[C@H](NC(=O)/C=C/c1ccc(OP(=O)(O)O)cc1)C(=O)N1C[C@H]2C[C@H]2[C@H]1C(=O)NCCCC(N)=O` [CHEMBL577143] as the molecule, how does the “Type (known STAT3 active)” value read?
A: Active

Q: With `CC(=O)N[C@@H](Cc1ccc(OCC(=O)O)cc1)C(=O)N[C@@H](CC(C)C)C(=O)N1CCC[C@H]1C(=O)N[C@@H](CCC(N)=O)C(=O)N[C@H](C(=O)N[C@H](C(=O)O)C(C)C)[C@@H](C)O` [CHEMBL414897] as the molecule, how does the “Type (known STAT3 active)” value read?
A: Active

Q: For `CC(C)C[C@H](NC(=O)/C=C/c1ccc(OP(=O)(O)O)cc1)C(=O)N1C[C@H]2C[C@H]2[C@H]1C(=O)NCCOCc1ccccc1` [CHEMBL583728], which “Type (known STAT3 active)” value is on record?
A: Active

Q: With `CC(=O)NC[C@H](CCC(N)=O)NC(=O)[C@@H]1CCCN1C(=O)[C@H](CC(C)C)NC(=O)/C=C/c1ccc(OP(=O)(O)O)cc1` [CHEMBL573442] as the molecule, how does the “Type (known STAT3 active)” value read?
A: Active

Same assay, conditions: sheet 6QHD_actives_decoys; retrospective screening set for STAT3 SH2 domain (PDB 6QHD); […]; ref DUD-E; cited from earlier work

Q: For `COc1cc(NS(=O)(=O)c2ccc(NC(=O)CCCCC(=O)Nc3ccc(S(=O)(=O)/N=c4/cc(OC)nc(OC)[nH]4)cc3)cc2)nc(OC)n1` [Decoy429], which Type is on record?
A: Inactive (Decoy)

Q: With `O=C(CCC(=O)Nc1ccc(S(=O)(=O)Nc2nccs2)cc1)Nc1ccc(S(=O)(=O)Nc2nccs2)cc1` [Decoy422] as the molecule, how does the Type read?
A: Inactive (Decoy)

Q: For `COc1ccccc1/C=C/C(=O)NC(=S)Nc1ccc(S(=O)(=O)Nc2cc(C)on2)cc1` [Decoy519], which Type is on record?
A: Inactive (Decoy)

Same assay, conditions: sheet 6QHD_actives_decoys; retrospective screening set for STAT3 SH2 domain (PDB 6QHD); decoys generated with DUD-E and presumed inactive, not tested; ref DUD-E; cited from earlier work

Q: For `COC(=O)CCSCCO[C@@H]1O[C@H](CO)[C@@H](O[C@@H]2O[C@H](CO)[C@@H](O)[C@@H](O)[C@H]2O)[C@@H](O)[C@H]1NC(C)=O` [Decoy352], which Type is on record?
A: Inactive (Decoy)

Q: With `COCCN(C/C(O)=N/c1nc(-c2ccc(Cl)cc2)cn1-c1ccc(OC)cc1)C(=O)C1CCCC1` [Decoy663] as the molecule, how does the Type read?
A: Inactive (Decoy)

Q: With `CCCCCCCCCCC/C=C/C(=O)N[C@H]1[C@@H](O[C@H]2O[C@@H](CO)[C@@H](O)[C@@H](O)[C@H]2NC(C)=O)O[C@@H](C[C@H](O)[C@H]2O[C@@H](n3ccc(=O)[nH]c3=O)[C@@H](O)[C@H]2O)[C@@H](O)[C@H]1O` [Decoy557] as the molecule, how does the Type read?
A: Inactive (Decoy)

Q: With `O=C(NCCCN1CCN(CCCNC(=O)c2cc3ccccc3oc2=O)CC1)c1cc2ccccc2oc1=O` [Decoy526] as the molecule, how does the Type read?
A: Inactive (Decoy)

Q: With `CCOc1cc(/C=N/N=C2\NC(=O)[C@@H](CC(=O)O)S2)cc(Br)c1OS(=O)(=O)c1ccc(C)cc1` [Decoy551] as the molecule, how does the Type read?
A: Inactive (Decoy)

Q: For `Cc1ccc(S(=O)(=O)OC[C@H](OS(=O)(=O)c2ccc(C)cc2)[C@H](O)[C@H](O)[C@@H](COS(=O)(=O)c2ccc(C)cc2)OS(=O)(=O)c2ccc(C)cc2)cc1` [Decoy424], which Type is on record?
A: Inactive (Decoy)

Q: For `CC(C)(C)c1cc(Br)cc([C@@H](CN(C(=O)CN)C(=O)c2cc(O)cc(N=C3NCC(O)CN3)c2)C(=O)O)c1` (stereo partly drawn) [Decoy598], which Type is on record?
A: Inactive (Decoy)

Q: With `CC(=O)OC[C@@H]1O[C@H](O)[C@H](OC(C)=O)[C@H](OC(C)=O)[C@@H]1O[C@@H]1O[C@H](COC(C)=O)[C@@H](O)[C@H](OC(C)=O)[C@@H]1OC(C)=O` [Decoy413] as the molecule, how does the Type read?
A: Inactive (Decoy)

Q: Which Type does the source give for `Cc1ccc(N(C[C@H](O)[C@@H](O)[C@H](O)CO)/N=N/c2cccc(S(=O)(=O)O)c2)cc1C` [Decoy430] here?
A: Inactive (Decoy)

Q: Which Type does the source give for `O=C(NCCCCCCNC(=O)N(CCO)[C@H]1CCS(=O)(=O)C1)N(CCO)[C@@H]1CCS(=O)(=O)C1` [Decoy656] here?
A: Inactive (Decoy)

Q: With `COc1cc(NC(=O)c2cnn3c2N[C@H](c2cc(OC)c(OC)c(OC)c2)C[C@@H]3C(F)(F)F)cc([N+](=O)[O-])c1` [Decoy512] as the molecule, how does the Type read?
A: Inactive (Decoy)

Q: With `O=C(COCCN1CCN([C@@H](c2ccccc2)c2ccc(Cl)cc2)CC1)O[C@@H]1O[C@@H](CO)[C@@H](O[C@@H]2O[C@@H](CO)[C@H](O)[C@H](O)[C@H]2O)[C@H](O)[C@H]1O` [Decoy462] as the molecule, how does the Type read?
A: Inactive (Decoy)

Q: With `CCCCn1nc(NC(=O)c2cc(OCC)c(OCC)c(OCC)c2)c2cc3cc(C)ccc3nc21` [Decoy415] as the molecule, how does the Type read?
A: Inactive (Decoy)

Q: For `Nc1nc(OCc2cc(Br)cs2)c2ncn(CCCCCCCCO[C@H]3O[C@@H](CO)[C@@H](O)[C@@H](O)[C@@H]3O)c2n1` [Decoy331], which Type is on record?
A: Inactive (Decoy)

Q: Which Type does the source give for `C=C(CCO)C(=O)OC[C@H]1OC[C@H](OC(=O)C(=C)CCO[C@@H]2O[C@H](COC(=O)C(=C)CCO)[C@@H](O)[C@H](O)[C@H]2O)[C@@H](O)[C@H]1O` [Decoy493] here?
A: Inactive (Decoy)

Q: With `COC(=O)c1cc(NC(=S)/N=C(/NCCN2CCOCC2)Nc2nc(C)cc(C)n2)cc(C(=O)OC)c1` [Decoy366] as the molecule, how does the Type read?
A: Inactive (Decoy)

Q: With `CCN(CC)C1=NC(=O)[C@@H](CC(=O)Nc2cccc(C(=O)OCC(=O)c3ccc(C)cc3)c2)S1` [Decoy495] as the molecule, how does the Type read?
A: Inactive (Decoy)

Q: With `C/C=C1/[C@H](O[C@@H]2O[C@H](CO)[C@@H](O)[C@H](O)[C@H]2O)OC=C(C(=O)OC)[C@H]1CC(=O)OCCc1ccc(O)c(O)c1` [Decoy367] as the molecule, how does the Type read?
A: Inactive (Decoy)

Q: Which Type does the source give for `COC(=O)c1cc2c(cc1C(=O)OC)OCCOCCOCCN(Cc1cn(CCOCCOCCO)nn1)CCOCCOCCO2` [Decoy630] here?
A: Inactive (Decoy)

Q: For `CCCCn1c(N)c(N(CCOC)C(=O)CSc2nc3ccccc3s2)c(=O)[nH]c1=O` [Decoy723], which Type is on record?
A: Inactive (Decoy)

Q: For `COc1cc(/C=C/C(=O)O[C@H]2[C@H](O)[C@@H](COC(=O)/C=C/c3ccc(O)cc3)O[C@@]2(CO)O[C@H]2O[C@H](CO)[C@@H](O)[C@H](O)[C@H]2O)ccc1O` [Decoy706], which Type is on record?
A: Inactive (Decoy)

Q: With `CCCn1c(O)nnc1SCC1=C(C(=O)OCC)[C@H](c2ccc(Cl)cc2)NC(=O)N1` [Decoy576] as the molecule, how does the Type read?
A: Inactive (Decoy)

Q: With `CCNC(=O)COc1ccc(NC(=O)c2cc(S(=O)(=O)NCc3ccco3)ccc2C)cc1` [Decoy477] as the molecule, how does the Type read?
A: Inactive (Decoy)

Q: Which Type does the source give for `COc1ccc(C(=O)NCCc2nnc3ccc(SCC(=O)Nc4ccc(OC(F)(F)F)cc4)nn23)cc1` [Decoy531] here?
A: Inactive (Decoy)

Q: With `CC(C)(CO[P@](=O)(O)O[P@](=O)(O)OC[C@H]1O[C@@H](n2cnc3c(N)ncnc32)[C@@H](O)[C@H]1O)[C@H](O)C(=O)NCCC(=O)NCCS` [Decoy640] as the molecule, how does the Type read?
A: Inactive (Decoy)

Q: With `CC[C@H]1OC(=O)[C@@H](C)[C@@H](O[C@@H]2C[C@@](C)(OC)[C@H](O)[C@H](C)O2)[C@@H](C)[C@@H](O[C@H]2O[C@@H](C)C[C@@H](N(C)C)[C@H]2O)[C@](C)(O)C[C@@H](C)/C(=N\OCOCCOC)[C@@H](C)[C@@H](O)[C@@]1(C)O` [Decoy580] as the molecule, how does the Type read?
A: Inactive (Decoy)

Q: For `Nn1c(N/N=C/c2ccc([N+](=O)[O-])cc2)nnc1SCC(=O)Nc1ccc(OC(F)(F)F)cc1` [Decoy441], which Type is on record?
A: Inactive (Decoy)

Q: Which Type does the source give for `O=C(CN(c1cccc([N+](=O)[O-])c1)S(=O)(=O)c1ccccc1)Nc1ccccc1C(=O)NCc1ccco1` [Decoy365] here?
A: Inactive (Decoy)

Q: Which Type does the source give for `CC(=O)OC[C@@H]1O[C@H](n2c(=O)[nH]c(=O)c3n[nH]nc32)[C@@H](OC(C)=O)[C@H](OC(C)=O)[C@H]1OC(C)=O` [Decoy545] here?
A: Inactive (Decoy)

Q: Which Type does the source give for `CC[C@@H](c1nnnn1CCOC)N(CCc1ccc(OC)c(OC)c1)Cc1cc2c(C)cc(C)cc2[nH]c1=O` [Decoy616] here?
A: Inactive (Decoy)
